These results are taken from article PMC10176470, “Engaging a Non-catalytic Cysteine Residue Drives Potent and Selective Inhibition of Caspase-6” (Journal of the American Chemical Society, 2023).

What all share (assay type): cell-based
Assay [1] addresses T1, proteins of HEK293T cells transiently overexpressing caspase-6 (Homo sapiens, UniProt Q8NC51).
T1 sequence (Q8NC51 1-408): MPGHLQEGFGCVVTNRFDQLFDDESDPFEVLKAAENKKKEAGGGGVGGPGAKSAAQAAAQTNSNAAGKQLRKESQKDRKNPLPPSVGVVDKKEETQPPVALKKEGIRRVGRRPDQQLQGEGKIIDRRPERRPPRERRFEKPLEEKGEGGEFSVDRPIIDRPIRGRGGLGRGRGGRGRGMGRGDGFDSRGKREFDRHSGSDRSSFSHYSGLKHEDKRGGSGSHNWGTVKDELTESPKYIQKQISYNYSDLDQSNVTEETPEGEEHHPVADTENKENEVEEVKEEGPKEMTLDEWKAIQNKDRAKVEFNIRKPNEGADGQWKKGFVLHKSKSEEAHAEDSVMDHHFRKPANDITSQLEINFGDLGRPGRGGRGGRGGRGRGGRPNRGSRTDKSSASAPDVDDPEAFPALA

Assay [2] has as its target T2, proteins of HEK293T cells transiently overexpressing caspase-6 (Homo sapiens, UniProt Q00325).
T2 sequence (Q00325 50-362): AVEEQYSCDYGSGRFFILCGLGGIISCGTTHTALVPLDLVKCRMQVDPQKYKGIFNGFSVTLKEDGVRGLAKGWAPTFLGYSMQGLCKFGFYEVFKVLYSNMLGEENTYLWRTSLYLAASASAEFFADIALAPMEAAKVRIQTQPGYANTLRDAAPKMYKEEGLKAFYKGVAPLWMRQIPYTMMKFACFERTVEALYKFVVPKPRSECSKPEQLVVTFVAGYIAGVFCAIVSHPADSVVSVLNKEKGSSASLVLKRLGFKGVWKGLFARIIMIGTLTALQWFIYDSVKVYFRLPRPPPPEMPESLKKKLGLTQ
The settings on record: protein SLC25A3 (Q00325).

In assay [3] the target is proteins of HEK293T cells transiently overexpressing caspase-6 (Homo sapiens, UniProt O43143). The settings on record: exp_ref Probe; protein DHX15 (O43143); analysis C6.
Assay [4] addresses proteins of HEK293T cells transiently overexpressing caspase-6 (Homo sapiens, UniProt P26641). Particulars: exp_ref Probe; protein EEF1G (P26641); analysis C6.
Assay [5] has as its target proteins of HEK293T cells transiently overexpressing caspase-6 (Homo sapiens, UniProt P62937). Particulars: exp_ref Probe; protein PPIA (P62937); analysis C6.
The target of assay [6] is proteins of HEK293T cells transiently overexpressing caspase-6 (Homo sapiens, UniProt P16615). The settings on record: protein ATP2A2 (P16615).
The target in assay [7] is proteins of HEK293T cells transiently overexpressing caspase-6 (Homo sapiens, UniProt P62805).
Assay [8] deals with T3, proteins of HEK293T cells transiently overexpressing caspase-6 (Homo sapiens, UniProt O00567).
T3 sequence (O00567 1-594): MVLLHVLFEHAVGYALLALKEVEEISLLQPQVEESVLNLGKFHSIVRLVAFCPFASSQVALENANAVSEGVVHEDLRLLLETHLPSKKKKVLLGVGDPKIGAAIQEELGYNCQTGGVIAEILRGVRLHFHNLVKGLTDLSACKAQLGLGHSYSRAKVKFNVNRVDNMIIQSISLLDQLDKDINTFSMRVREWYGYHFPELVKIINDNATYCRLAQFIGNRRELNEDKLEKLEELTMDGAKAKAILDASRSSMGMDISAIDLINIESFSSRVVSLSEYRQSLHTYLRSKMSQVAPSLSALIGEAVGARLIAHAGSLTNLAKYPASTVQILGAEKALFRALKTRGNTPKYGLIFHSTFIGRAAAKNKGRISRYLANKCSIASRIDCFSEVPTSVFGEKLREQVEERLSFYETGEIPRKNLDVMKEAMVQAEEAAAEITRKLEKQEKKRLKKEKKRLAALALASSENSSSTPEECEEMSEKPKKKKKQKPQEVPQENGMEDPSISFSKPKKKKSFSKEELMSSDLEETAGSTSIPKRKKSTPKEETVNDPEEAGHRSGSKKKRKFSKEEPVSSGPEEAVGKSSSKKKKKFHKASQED
Particulars: exp_ref Probe; protein NOP56 (O00567); analysis C6.

Assay [9] addresses proteins of HEK293T cells transiently overexpressing caspase-6 (Homo sapiens, UniProt Q92598). Particulars: exp_ref Probe; protein HSPH1 (Q92598); analysis C6.
Assay [10] addresses proteins of HEK293T cells transiently overexpressing caspase-6 (Homo sapiens, UniProt P39687). Particulars: exp_ref Probe; protein ANP32A (P39687); analysis C6.
Assay [11] concerns the target proteins of HEK293T cells transiently overexpressing caspase-6 (Homo sapiens, UniProt P15880). Particulars: protein RPS2 (P15880).

Chain of proteins of HEK293T cells transiently overexpressing caspase-6 (Homo sapiens, UniProt P16615) (P16615 whole entry): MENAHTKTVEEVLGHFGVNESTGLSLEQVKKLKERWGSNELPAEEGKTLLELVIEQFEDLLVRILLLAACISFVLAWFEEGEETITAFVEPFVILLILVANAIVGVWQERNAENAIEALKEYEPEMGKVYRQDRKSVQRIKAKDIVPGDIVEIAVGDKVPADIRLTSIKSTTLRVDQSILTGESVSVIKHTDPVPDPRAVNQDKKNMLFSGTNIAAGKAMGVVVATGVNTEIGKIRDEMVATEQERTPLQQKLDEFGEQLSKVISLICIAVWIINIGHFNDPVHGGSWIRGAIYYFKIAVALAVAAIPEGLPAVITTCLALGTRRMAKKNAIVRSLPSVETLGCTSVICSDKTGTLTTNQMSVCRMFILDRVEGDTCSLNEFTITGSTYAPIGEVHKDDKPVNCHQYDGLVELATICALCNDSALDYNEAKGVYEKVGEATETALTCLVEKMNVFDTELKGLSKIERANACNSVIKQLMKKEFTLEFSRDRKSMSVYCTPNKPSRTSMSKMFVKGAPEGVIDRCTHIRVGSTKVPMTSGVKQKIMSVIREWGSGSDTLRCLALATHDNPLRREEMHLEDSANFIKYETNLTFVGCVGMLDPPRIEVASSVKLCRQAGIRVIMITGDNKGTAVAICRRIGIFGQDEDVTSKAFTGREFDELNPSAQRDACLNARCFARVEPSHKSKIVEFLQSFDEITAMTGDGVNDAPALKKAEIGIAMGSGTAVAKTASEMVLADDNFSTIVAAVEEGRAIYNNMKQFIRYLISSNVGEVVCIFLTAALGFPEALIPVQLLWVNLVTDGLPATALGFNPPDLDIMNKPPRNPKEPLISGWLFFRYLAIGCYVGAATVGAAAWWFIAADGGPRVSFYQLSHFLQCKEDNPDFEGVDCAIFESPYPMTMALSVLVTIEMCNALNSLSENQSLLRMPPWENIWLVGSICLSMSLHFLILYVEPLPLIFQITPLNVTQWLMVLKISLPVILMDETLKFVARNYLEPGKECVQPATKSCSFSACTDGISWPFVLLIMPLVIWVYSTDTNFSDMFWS
Chain of proteins of HEK293T cells transiently overexpressing caspase-6 (Homo sapiens, UniProt P62937) (P62937 whole entry): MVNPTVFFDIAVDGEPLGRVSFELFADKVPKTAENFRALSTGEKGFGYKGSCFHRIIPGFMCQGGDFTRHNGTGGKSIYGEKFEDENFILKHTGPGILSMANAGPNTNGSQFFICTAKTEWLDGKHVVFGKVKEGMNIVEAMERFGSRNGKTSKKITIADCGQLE
Chain of proteins of HEK293T cells transiently overexpressing caspase-6 (Homo sapiens, UniProt Q92598) (Q92598 whole entry): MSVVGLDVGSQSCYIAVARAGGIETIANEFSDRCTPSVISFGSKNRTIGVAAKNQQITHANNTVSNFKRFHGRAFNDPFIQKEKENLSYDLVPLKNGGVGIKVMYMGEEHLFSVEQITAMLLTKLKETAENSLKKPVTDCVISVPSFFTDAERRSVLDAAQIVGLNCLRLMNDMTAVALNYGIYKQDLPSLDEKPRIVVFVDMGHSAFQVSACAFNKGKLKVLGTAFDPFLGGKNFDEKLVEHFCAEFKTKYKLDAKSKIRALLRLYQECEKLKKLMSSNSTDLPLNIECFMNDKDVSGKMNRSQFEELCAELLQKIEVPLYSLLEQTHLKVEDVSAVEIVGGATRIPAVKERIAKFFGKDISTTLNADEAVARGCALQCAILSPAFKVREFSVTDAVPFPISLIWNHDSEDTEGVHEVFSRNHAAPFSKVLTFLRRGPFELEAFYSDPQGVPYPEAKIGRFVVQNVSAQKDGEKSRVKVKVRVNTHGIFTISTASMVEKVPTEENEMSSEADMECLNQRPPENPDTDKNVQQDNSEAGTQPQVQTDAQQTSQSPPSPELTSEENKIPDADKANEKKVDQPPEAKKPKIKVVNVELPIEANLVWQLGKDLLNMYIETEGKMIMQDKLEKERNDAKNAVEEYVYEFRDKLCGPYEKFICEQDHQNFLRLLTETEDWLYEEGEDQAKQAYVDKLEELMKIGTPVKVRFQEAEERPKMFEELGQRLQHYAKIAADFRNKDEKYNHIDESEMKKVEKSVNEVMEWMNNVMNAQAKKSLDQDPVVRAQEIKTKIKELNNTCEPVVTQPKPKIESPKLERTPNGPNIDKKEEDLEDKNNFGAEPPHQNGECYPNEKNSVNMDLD
Chain of proteins of HEK293T cells transiently overexpressing caspase-6 (Homo sapiens, UniProt P26641) (P26641 whole entry): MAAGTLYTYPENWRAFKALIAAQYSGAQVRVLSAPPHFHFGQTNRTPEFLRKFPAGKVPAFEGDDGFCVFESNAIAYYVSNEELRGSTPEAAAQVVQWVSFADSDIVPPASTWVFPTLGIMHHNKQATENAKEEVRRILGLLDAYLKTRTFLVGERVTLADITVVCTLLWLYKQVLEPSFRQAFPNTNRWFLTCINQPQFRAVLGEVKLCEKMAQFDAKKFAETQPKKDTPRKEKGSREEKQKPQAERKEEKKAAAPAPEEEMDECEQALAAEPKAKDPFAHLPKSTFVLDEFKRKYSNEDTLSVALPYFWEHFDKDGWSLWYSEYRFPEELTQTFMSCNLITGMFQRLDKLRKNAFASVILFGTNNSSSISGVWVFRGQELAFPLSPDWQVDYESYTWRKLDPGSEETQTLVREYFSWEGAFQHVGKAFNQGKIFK
Chain of proteins of HEK293T cells transiently overexpressing caspase-6 (Homo sapiens, UniProt O43143) (O43143 whole entry): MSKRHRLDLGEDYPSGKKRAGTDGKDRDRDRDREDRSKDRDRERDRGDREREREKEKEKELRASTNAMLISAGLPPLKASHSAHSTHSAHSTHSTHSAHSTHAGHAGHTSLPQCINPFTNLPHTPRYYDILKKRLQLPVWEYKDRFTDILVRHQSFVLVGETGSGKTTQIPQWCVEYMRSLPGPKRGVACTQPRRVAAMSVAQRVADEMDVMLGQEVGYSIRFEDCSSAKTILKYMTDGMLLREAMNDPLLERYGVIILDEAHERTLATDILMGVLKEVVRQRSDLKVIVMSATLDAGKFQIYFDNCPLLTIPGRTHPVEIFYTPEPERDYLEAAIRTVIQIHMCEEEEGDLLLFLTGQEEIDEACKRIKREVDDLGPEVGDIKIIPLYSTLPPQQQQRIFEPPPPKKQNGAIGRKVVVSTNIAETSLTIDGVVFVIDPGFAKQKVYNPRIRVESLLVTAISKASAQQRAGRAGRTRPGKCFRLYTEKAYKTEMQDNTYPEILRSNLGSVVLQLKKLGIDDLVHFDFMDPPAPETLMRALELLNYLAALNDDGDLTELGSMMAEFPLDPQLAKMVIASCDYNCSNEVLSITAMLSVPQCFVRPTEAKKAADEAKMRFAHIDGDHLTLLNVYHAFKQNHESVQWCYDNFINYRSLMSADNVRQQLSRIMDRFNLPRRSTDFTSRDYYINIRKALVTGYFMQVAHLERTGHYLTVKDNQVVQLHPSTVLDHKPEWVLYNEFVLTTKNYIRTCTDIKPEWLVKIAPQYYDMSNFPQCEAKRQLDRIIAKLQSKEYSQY
Chain of proteins of HEK293T cells transiently overexpressing caspase-6 (Homo sapiens, UniProt P39687) (P39687 whole entry): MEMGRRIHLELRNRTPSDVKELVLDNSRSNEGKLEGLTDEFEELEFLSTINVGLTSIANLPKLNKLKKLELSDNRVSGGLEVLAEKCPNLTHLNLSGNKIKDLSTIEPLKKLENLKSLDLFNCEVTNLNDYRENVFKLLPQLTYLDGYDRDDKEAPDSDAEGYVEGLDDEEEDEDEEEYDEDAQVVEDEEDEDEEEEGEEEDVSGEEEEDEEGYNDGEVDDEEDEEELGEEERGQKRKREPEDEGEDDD

With `C#CCOc1ccc([C@@H]2C[C@@H](C(=O)Nc3ccc(OC(F)(F)F)cc3)CN(S(=O)(=O)C=C)C2)cc1` (relative stereo) [13-t], the enrich.exp.med in assay [1] (Probe, protein SERBP1 Q8NC51) is -1.6881; in [2] (exp_ref Probe, analysis C6), 0.6055; in [3], 1.187; in [4], 0.5675; in assay [5], -0.06908; in assay [6] (exp_ref Probe, analysis C6), 1.516. Besides, the enrich.exp.med is -2.533 in assay [7] (Probe, protein HIST1H4A P62805); -0.321 in assay [8]; 0.7489 in [9]; 0.2226 in assay [10]; 0.988 in [11] (exp_ref Probe, analysis C6). Further, the enrich.exp.med.lin is 0.3103 in [1] (protein SERBP1 (Q8NC51)); 1.522 in assay [2]; 2.861 in assay [6]; 0.1728 in assay [7] (protein HIST1H4A (P62805)); 1.9835 in assay [11]. In addition, the enrich.exp.med.log2 was -1.6881 in assay [1] (protein SERBP1 (Q8NC51)); 0.6055 in assay [2]; 1.516 in [6]; -2.533 in assay [7] (protein HIST1H4A (P62805)); 0.988 in assay [11].
